According to US20200115357A1, “LIVER X RECEPTORS (LXR) MODULATORS” (Phenex-FXR GmbH, priority 2017, published 2020):

Tests used:
[1] = biological target: T1, GST-LXRβ ligand-binding domain (Homo sapiens, UniProt P55055, DUP175-175); assay: TR-FRETβ activity assay (LXRβ-LBD / NCoA3 coactivator peptide, prestimulated with 24(S)-25-epoxycholesterol); format: biochemical; set-up: key to behavior in FRET assay: ag=agonist; ia=inverse agonist; settings: for EC50: read-out: FRETβ activity range (EC50); for behavior in FRET assay: agonist or inverse agonist
T1 construct: amino acids 156-461; NP009052; made in house; host or cells: E. coli
T1 sequence (P55055 with tags, fused parts or gaps DUP175-175): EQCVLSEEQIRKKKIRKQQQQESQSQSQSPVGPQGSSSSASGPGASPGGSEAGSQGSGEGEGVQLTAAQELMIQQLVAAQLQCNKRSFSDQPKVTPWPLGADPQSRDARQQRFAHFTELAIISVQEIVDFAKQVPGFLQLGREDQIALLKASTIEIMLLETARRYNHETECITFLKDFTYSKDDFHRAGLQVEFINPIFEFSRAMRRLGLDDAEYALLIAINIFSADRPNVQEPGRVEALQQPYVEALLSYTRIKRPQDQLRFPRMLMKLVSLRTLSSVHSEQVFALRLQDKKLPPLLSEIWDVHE
Experimental: The tested compounds were usually dissolved, tested and stored as 20 mM stock solutions in DMSO. […] Sulfonyl acetic acid derivatives are shelf stable as solid at rt for long time as reported by Griesbrecht et al. (Synlett 2010:374) or Faucher et al. (J. Med. Chem. 2004; 47:18). TR-FRETβ Activity Assay Recombinant GST-LXRβ ligand-binding domain (LBD; amino acids 156-461; NP009052; SEQ ID NO:2) was expressed in E. coli and purified via gluthatione-sepharose affinity chromatography. N-terminally biotinylated NCoA3 coactivator peptide (SEQ ID NO:1) was chemically synthesized (Eurogentec). […] Finally, a detection mix was added containing anti GST-Tb cryptate (CisBio; 610SAXLB) and Streptavidin-XL665 (CisBio; 610SAXLB) as fluorescent donor and acceptor, respectively, as well as the coactivator peptide and LXRβ-LBD protein (SEQ ID NO:2). The reaction was mixed thoroughly, equilibrated for 1 h at 4° C. and vicinity of LXRβ and coactivator peptide was detected by measurement of fluorescence in a VictorX4 multiplate reader (PerkinElmer Life Science) using 340 nm as excitation and 615 and 665 nm as emission wavelengths. Assays were performed in triplicates. Final Assay Concentrations of Components: 240 mM KCl, 1 μg/μL BSA, 0.002% Triton-X-100, […] anti GST-Tb cryptate, 2.5 ng/μL Streptavidin-XL665, coactivator peptide (400 nM), LXRβ protein ([…], i.e. 76 nM)

LXRα full length (FL) = biological target: T2, LXRα full length (FL) (Homo sapiens, UniProt Q13133); assay: LXR Gal4 reporter transient transfection assay (M2H), Gal4α FL; format: cell-based; settings: HEK293 cells; read-out: M2H Gal4α FL activity range (EC50)
T2 construct: the full length (FL) proteins of LXRα (amino acids 1-447); NP005684; expressed in transfected cells; host or cells: HEK293
T2 sequence (Q13133 1-447): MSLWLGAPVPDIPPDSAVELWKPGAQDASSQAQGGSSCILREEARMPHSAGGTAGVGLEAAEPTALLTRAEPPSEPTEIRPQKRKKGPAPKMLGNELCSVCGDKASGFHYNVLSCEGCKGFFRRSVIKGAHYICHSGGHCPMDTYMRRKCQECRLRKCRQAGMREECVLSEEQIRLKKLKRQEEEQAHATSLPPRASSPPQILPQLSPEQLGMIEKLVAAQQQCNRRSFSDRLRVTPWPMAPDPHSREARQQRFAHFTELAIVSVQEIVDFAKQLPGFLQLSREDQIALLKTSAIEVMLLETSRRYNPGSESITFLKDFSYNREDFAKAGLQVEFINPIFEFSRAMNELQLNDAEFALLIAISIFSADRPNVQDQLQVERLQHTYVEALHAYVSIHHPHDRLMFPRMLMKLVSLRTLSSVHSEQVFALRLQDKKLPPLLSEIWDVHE
Experimental: (§1) The tested compounds were usually dissolved, tested and stored as 20 mM stock solutions in DMSO. Since sulfonyl acetic acid derivatives tend to decarboxylate under these conditions, these stock solutions were prepared, tested and stored as 20 mM DMSO stock solutions containing 100 mM trifluoroacetic acid (5 equivalents). Sulfonyl acetic acid derivatives are shelf stable as solid at rt for long time as reported by Griesbrecht et al. (Synlett 2010:374) or Faucher et al. (J. Med. Chem. 2004; 47:18).
(§2) LXR Gal4 Reporter Transient Transfection Assays
(§3) LXRα and LXRβ activity status was determined via detection of interaction with coactivator and corepressor proteins in mammalian two-hybrid experiments (M2H). For this, via transient transfection the full length (FL) proteins of LXRα (amino acids 1-447; NP005684; SEQ ID NO:7) or LXRβ-(amino acids 1-461; NP009052; SEQ ID NO:8) or the ligand-binding domains (LBD) of LXRα (amino acids 155-447 SEQ ID NO:3) or LXRβ (amino acids 156-461; SEQ ID NO:4) were expressed from pCMV-AD (Stratagene) as fusions to the transcriptional activation domain of NFkB. As cofactors, domains of either the steroid receptor coactivator 1 (SRC1; amino acids 552-887; SEQ ID NO:5) or of the corepressor NCoR (amino acids 1903-2312 SEQ ID NO:6) were expressed as fusions to the DNA binding domain of the yeast transcription factor GAL4 (from pCMV-BD; Stratagene). Interaction was monitored via activation of a coexpressed Firefly Luciferase Reporter gene under control of a promoter containing repetitive GAL4 response elements (vector pFRLuc; Stratagene). Transfection efficiency was controlled via cotransfection of constitutively active pRL-CMV Renilla reniformis luciferase reporter (Promega). HEK293 cells were grown in minimum essential medium (MEM) with 2 mM L-glutamine and Earle's balanced salt solution supplemented with 8.3% fetal bovine serum, 0.1 mM non-essential amino acids, 1 mM sodium pyruvate, at 37° C. in 5% CO2. 3.5×10^4 cells/well were plated in 96-well cell culture plates in growth medium supplemented with 8.3% fetal bovine serum for 16-20 h to ˜90% confluency. For transfection, medium was taken off and LXR and cofactor expressing plasmids as well as the reporter plasmids are added in 30 μL OPTIMEM/well including polyethylene-imine (PEI) as vehicle. Typical amounts of plasmids transfected/well: pCMV-AD-LXR (5 ng), pCMV-BD-cofactor (5 ng), pFR-Luc (100 ng), pRL-CMV (0.5 ng). Compound stocks were prepared in DMSO, prediluted in MEM to a total volume of 120 μL, and added 4 h after addition of the transfection mixture (final vehicle concentration not exceeding 0.2%). Cells were incubated for additional 16 h, lysed for 10 min in 1× Passive Lysis Buffer (Promega) and Firefly and Renilla luciferase activities were measured sequentially in the same cell extract using buffers containing D-luciferine and coelenterazine, respectively. Measurements of luminescence were done in a BMG-Iuminometer.

LXRβ full length (FL) = biological target: T3, LXRβ full length (FL) (Homo sapiens, UniProt P55055, DUP175-175); assay: LXR Gal4 reporter transient transfection assay (M2H), Gal4β FL; format: cell-based; settings: HEK293 cells; read-out: M2H Gal4β FL activity range (EC50)
T3 construct: the full length (FL) proteins of LXRα (amino acids 1-447); NP005684; NP009052; expressed in transfected cells; host or cells: HEK293
T3 sequence (P55055 with tags, fused parts or gaps DUP175-175): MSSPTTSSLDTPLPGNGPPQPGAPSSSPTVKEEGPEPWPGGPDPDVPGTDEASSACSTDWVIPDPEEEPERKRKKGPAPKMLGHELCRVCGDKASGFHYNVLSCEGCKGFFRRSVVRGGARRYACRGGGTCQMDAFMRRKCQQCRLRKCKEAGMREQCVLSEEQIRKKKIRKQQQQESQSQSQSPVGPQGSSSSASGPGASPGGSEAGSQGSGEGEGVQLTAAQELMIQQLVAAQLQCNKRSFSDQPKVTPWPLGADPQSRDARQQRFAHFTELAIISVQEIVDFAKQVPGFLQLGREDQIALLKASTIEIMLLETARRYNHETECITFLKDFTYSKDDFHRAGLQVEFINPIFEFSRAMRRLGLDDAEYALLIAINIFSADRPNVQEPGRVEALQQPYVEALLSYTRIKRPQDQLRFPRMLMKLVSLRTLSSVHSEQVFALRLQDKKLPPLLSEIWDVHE
Experimental: as §1, §2, §3

[2] = 1 μM 24(S)-25-epoxycholesterol as prestimulating agonist

EC50 [1, 2]	behavior in FRET assay [1]	EC50 (LXRα full length (FL))	EC50 (LXRβ full length (FL))	FRETβ activity range (EC50) [1, 2]	Structure (SMILES)
> 10 µM	ia	1 to 10 µM	0.1 to 1 µM	–	Cc1cc(C)c(S(=O)(=O)N(Cc2ccc(-c3cccc(S(=O)(=O)CC(=O)O)c3)cc2)Cc2ccc(F)c(C)c2)c(C)c1 [11/5]
0.1 to 1 µM	ag	0.1 to 1 µM	< 0.1 µM	–	Cc1cc(C)c(S(=O)(=O)N(Cc2ccc(-c3cccc(S(=O)(=O)CC(=O)O)c3)cc2)Cc2c(F)cccc2Cl)c(C)c1 [11/6]
1 to 10 µM	ia	1 to 10 µM	1 to 10 µM	–	Cc1cc(C)c(S(=O)(=O)N(Cc2ccc(-c3cccc(S(=O)(=O)CC(=O)O)c3)cc2)Cc2cncc(C(F)(F)F)c2)c(C)c1 [11/9]
1 to 10 µM	ia	1 to 10 µM	1 to 10 µM	–	Cc1cc(C)c(S(=O)(=O)N(Cc2ccc(-c3cccc(S(=O)(=O)CC(=O)O)c3)cc2)Cc2csc(C(F)(F)F)c2)c(C)c1 [11/10]
0.1 to 1 µM	ag	1 to 10 µM	0.1 to 1 µM	–	Cc1cc(C)c(S(=O)(=O)N(Cc2ccc(-c3cccc(S(=O)(=O)CC(=O)O)c3)cc2)Cc2ccc(F)cc2Cl)c(C)c1 [11/11]
0.1 to 1 µM	ag	0.1 to 1 µM	< 0.1 µM	–	Cc1cc(C)c(S(=O)(=O)N(Cc2ccc(-c3cccc(S(=O)(=O)CC(=O)O)c3)cc2)Cc2ccccc2C(F)(F)F)c(C)c1 [11/12]
1 to 10 µM	ia	1 to 10 µM	0.1 to 1 µM	–	Cc1cc(C)c(S(=O)(=O)N(Cc2ccc(-c3cccc(S(=O)(=O)CC(=O)O)c3)cc2)Cc2cccc(OC(F)F)c2)c(C)c1 [11/15]
–	–	1 to 10 µM	0.1 to 1 µM	inactive	Cc1cc(C)c(S(=O)(=O)N(Cc2ccc(-c3cccc(S(=O)(=O)CC(=O)O)c3)cc2)Cc2cccc(Cl)c2)c(C)c1 [11/16]
1 to 10 µM	ia	1 to 10 µM	0.1 to 1 µM	–	Cc1cccc(C)c1S(=O)(=O)N(Cc1ccc(-c2cccc(S(=O)(=O)CC(=O)O)c2)cc1)Cc1ccc(C(F)(F)F)o1 [14/2]
0.1 to 1 µM	ia	< 0.1 µM	< 0.1 µM	–	Cc1ccc2ccccc2c1S(=O)(=O)N(Cc1ccc(-c2cccc(C(C)(C)C(=O)O)c2)cc1)C1CCc2ccc(C(F)(F)F)cc21 (stereo not shown) [17/2]
< 0.1 µM	ia	< 0.1 µM	< 0.1 µM	–	Cc1cc(C(F)(F)F)oc1CN(Cc1ccc(-c2cccc(C(C)(C)C(=O)O)c2)cc1)S(=O)(=O)c1c(C)ccc2ccccc12 [17/3]
1 to 10 µM	ia	0.1 to 1 µM	0.1 to 1 µM	–	Cc1cc(C)c(S(=O)(=O)N(Cc2ccc(-c3cccc(S(=O)(=O)C(C)C(=O)O)c3)cc2)Cc2ccc(C(F)(F)F)o2)c(C)c1 (stereo not shown) [Example 5/1]
1 to 10 µM	ia	0.1 to 1 µM	0.1 to 1 µM	–	Cc1ccc2ccccc2c1S(=O)(=O)N(Cc1ccc(-c2cccc(S(=O)(=O)CC(=O)O)c2)cc1)Cc1ccc(C#N)o1 [Example 5/7]
1 to 10 µM	ia	0.1 to 1 µM	0.1 to 1 µM	–	Cc1cc(C)c(S(=O)(=O)N(Cc2ccc(-c3cc(F)c(CO)c(S(=O)(=O)CC(=O)O)c3)cc2)Cc2ccc(C(F)(F)F)o2)c(C)c1 [Example 9, 2-((5-Fluoro-4-(hydroxymethyl)-4′-(((2,4,6-trimethyl-N-((5-(trifluoromethyl)furan-2-yl)methyl)phenyl)sulfonamido)methyl)-[1,1′-biphenyl]-3-yl)sulfonyl)acetic acid]
